Source: ChEMBL document CHEMBL1126846, “Two new unsaturated fatty acid ethanolamides in brain that bind to the cannabinoid receptor” (J Med Chem, 1993)

Biological target: Cannabinoid receptor (Mus musculus, UniProt P47746+P47936)
Assay: Ability to displace [3H]HU-243 binding to cannabinoid receptor in synaptosomal membrane
Format: cell membranes

Compound	Ki [nM]
CCCCC/C=C\C/C=C\C/C=C\CCCCCCCC(=O)NCCO	53.4
CCCCC/C=C\C/C=C\C/C=C\C/C=C\CCCCCC(=O)NCCO	34.4
